Measured values reported in patent publication US10696973B2, “Inducible eukaryotic expression system” (Regeneron Pharmaceuticals, Inc., priority 2002, dated 2020).

How the values were obtained:
Type in all cases: cell-based
[1] = biological target: T1, Arc2-ERLBDT2 fusion protein (Homo sapiens, UniProt P03372, G400V/L544A/M543A); experiment: Time course of 13SC1132 induction in clone C110 after removal of OHT, mean fluorescence of cell surface-displayed protein; conditions: clone C110 grown in 200 nM OHT, then washed; measured 3, 6 and 9 days after removal
T1 construct: expressed in transfected cells; host or cells: CHO K1/pTE534 cells (A2) or RGC12 cells, a CHO K1 derivative (A3), stably transfected with pTE529
T1 sequence (P03372 with tags, fused parts or gaps G400V/M543A/L544A): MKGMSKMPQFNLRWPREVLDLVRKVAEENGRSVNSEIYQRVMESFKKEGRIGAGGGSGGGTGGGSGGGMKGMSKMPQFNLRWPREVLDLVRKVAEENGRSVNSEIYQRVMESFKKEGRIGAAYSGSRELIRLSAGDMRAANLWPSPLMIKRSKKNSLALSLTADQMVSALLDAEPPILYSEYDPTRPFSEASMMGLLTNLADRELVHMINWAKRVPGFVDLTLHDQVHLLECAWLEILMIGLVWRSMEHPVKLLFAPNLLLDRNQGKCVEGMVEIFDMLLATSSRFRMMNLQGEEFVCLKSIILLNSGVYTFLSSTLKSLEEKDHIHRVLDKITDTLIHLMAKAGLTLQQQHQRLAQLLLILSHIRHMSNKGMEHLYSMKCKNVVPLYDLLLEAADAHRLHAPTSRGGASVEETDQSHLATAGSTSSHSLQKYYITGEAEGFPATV
Procedure: RGC12 cells (2×10^6) were transfected with 5 μg pTE529 encoding the Arc-ERLBDT2 protein driven by a ubiquitin promoter (FIG. 9) using Lipofectamine™ as described above. The cells were placed in the culture medium (10% fetal bovine serum, 90% Ham's F-12, 2 mM L-glutamine; all reagents were from lnvitrogen Life Technologies, Carlsbad, Calif.) containing 10 μg/ml puromycin (CalBiochem) for 14 days. Cells resistant to puromycin, expressing the Arc2-ERLBDT2 fusion protein, were then transfected with pTE689 encoding protein of interest […] (FIG. 8) as described above except the culture medium contained 200 nM OHT. […] Cells that secreted the highest levels of 13SC1132 as measured by 13SC1132 complexed with FcγRI on the cell surface (top 5%) were isolated by flow cytometry on a MOFLO™ cell sorter. Cells were grown in the presence of OHT for 7 days, and treated for screening as described above, but the cells with the lowest 5% cell surface fluorescence were isolated in order to enrich for clones with regulated expression of 13SC1132. Cells were then grown in the absence of OHT, treated for flow cytometry, and single cells with the highest 0.1% fluorescence in this population were isolated, expanded, and screened for 13SC1132 expression in the absence of OHT and tight regulation in the presence of OHT. […]

[2] = biological target: T1, Arc2-ERLBDT2 fusion protein; experiment: hFcγRI expression regulated by Arc2-ERLBDT2 in CHO K1/pTE534 cells transfected with pTE529, FITC-hFc staining and flow cytometry
Procedure: CHO K1 cells (2×10^6) were transfected with pTE534 using Lipofectamine™ as described above. The cells were placed in the culture medium (10% fetal bovine serum, 90% Ham's F-12, 2 mM L-glutamine; all reagents were from Invitrogen Life Technologies, Carlsbad, Calif.) containing 400 μg/ml G418 (Invitrogen Life Technologies) for 12 days. Cells resistant to G418 were trypsinized, pooled, and stained with 2 μg/ml of FITC-conjugated human IgG, Fc fragment (FITC-hFc) as described above. […] Cells that expressed hFcγRI bound FITC-hFc and were isolated based on their fluorescence by flow cytometry on a MOFLO™ cell sorter. Cells with the highest 3% fluorescence in this population were isolated, pooled, and expanded. This hFcγRI-positive pool was enriched by repeating the cell surface staining with FITC-hFc and sorting the top 30% most fluorescent cells in the population to yield pool B. Cells in pool B that were among the top 20% expressing hFcγRI were isolated to yield pool C. Pool C2 (CHOK1/pTE534) was used to generate inducible cell lines regulated by Arc-ERLBDT2.
CHO K1/pTE534 cells (2×10^6/dish) were transfected with either pRG985, an empty vector, or pTE529 using Lipofectamine™. […] The cells were stained with FITC-hFc as described above and analyzed by flow cytometry. […] This pool was expanded in the presence of OHT for 10 days, stained for hFcγRI expression and analyzed by flow cytometry. […]

[3] = biological target: T2, TetR-ERLBDT2 regulatory fusion protein (UniProt P03372+P04483, G400V/L544A/M543A); experiment: hFcγRI expression regulated by TetR-ERLBDT2 in CHO K1-FcR/pTE313 clones, FITC-hFc staining and flow cytometry; conditions: clone D124 (pool C12); OHT present without Dox
T2 construct: 11 amino acid linker […]; expressed in transfected cells; host or cells: CHO K1-FcR cells (CHO K1 with pTE158) stably transfected with pTE313
T2 sequence (P04483+P03372 fused P03372:G400V/P03372:M543A/P03372:L544A): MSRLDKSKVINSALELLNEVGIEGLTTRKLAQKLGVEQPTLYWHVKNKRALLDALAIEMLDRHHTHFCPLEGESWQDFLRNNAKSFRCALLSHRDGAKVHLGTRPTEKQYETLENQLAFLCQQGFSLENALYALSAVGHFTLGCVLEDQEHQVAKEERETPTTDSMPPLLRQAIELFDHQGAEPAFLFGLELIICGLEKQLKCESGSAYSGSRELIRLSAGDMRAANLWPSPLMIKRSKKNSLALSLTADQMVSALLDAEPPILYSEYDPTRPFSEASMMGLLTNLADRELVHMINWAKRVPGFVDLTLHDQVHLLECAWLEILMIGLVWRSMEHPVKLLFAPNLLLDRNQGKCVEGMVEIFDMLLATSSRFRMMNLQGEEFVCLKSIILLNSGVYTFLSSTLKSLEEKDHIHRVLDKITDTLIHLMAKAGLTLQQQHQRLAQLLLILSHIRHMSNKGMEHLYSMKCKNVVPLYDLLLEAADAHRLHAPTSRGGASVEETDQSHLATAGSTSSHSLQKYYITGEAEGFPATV
Procedure: The cells were placed in the culture medium (10% fetal bovine serum, 90% Ham's F-12, 2 mM L-glutamine; all reagents were from Life Technologies, Rockville, Md.) containing 500 G418 (Life Technologies) for 12 days. […] Briefly, cells grown on 10 cm culture plates were washed once with Dulbecco's phosphate-buffered saline (PBS) without calcium chloride and magnesium chloride (Life Technologies). Two milliliters of 0.25% trypsin (Life Technologies) was added to each plate and incubated at 37° C. for 4-5 min. The plates were swirled until the cells detached from the plate. Four milliliters of culture medium was immediately added to each plate of the detached cells. […] Washed cells capable of binding FITC-hFc were measured by flow cytometry on a MOFLO™ cell sorter (Cytomation; Fort Collins, Colo.). […] The total pool of fluorescent cells from the G418-resistant population was collected by flow cytometry, expanded then analyzed by flow cytometry for expression of hFcγRI. […]
Cells were incubated for three days then stained with FITC-hFc to detect the presence of hFcγRI. The top 60% of hFcγRI-positive cells from the culture induced with 1 μg/ml Dox were isolated to yield pool B 11, and cells with the lowest 30% fluorescence were isolated from cells grown in medium without Dox to yield pool B 12. […]

Substance: 4-hydroxytamoxifen [OHT]
- time after OHT removal until full induction of 13SC1132 expression [1]: 6 days
- level of hFcγRI expression ([2]; clone C17, OHT present in the medium): No detectable level of hFcγRI
- cells in pool that did not express hFcγRI ([2]; sorted pool expanded in the presence of OHT for 10 days): Over 70%
- level of hFcγRI expression [3]: no detectable level of hFcγRI
